According to patent US12264163B2, “Compounds and methods for treating fibrotic pathologies” (Mayo Foundation for Medical Education and Research, priority 2019, dated 2025):
Where a name gives a salt, the structure may show the parent alone.

How the values were obtained:
YAP/TAZ [1] = test: YAP/TAZ nuclear localization in adult lung fibroblasts, dose response (Cytation 5); type: cell-based; details: Homo sapiens, Fibroblast, 2 h, adult lung fibroblasts sparsely plated, treated 2 hours; read-out: IC50, inhibition of YAP/TAZ nuclear localization
Procedure: Adult lung fibroblasts (N=2) sparsely plated into 96-well plates. Treated for 2 hours with compounds prior to fixing and immunostaining for YAP/TAZ.
(§1) Immunofluorescence Microscopy: Cells were plated into 96 well plates (Corning 3603) in their specific growth media and allowed to attach (8 hours). Media was then exchanged for the indicated conditions for each experiment. Cells were fixed in 3.7% formalin (Sigma-Aldrich), permeabilized in 0.25% Triton X-100 (Sigma-Aldrich) and then blocked with 1% BSA for 1 h. Cells or tissue sections were incubated overnight with mouse monoclonal antibody against αSMA (Sigma-Aldrich F3777), and/or a rabbit monoclonal antibody against YAP/TAZ (Cell Signaling D24E4) diluted 1:200 in PBS with 1% BSA. Cells were then washed and exposed to flourescence-conjugated secondary antibodies (Invitrogen) diluted 1:1000 and DAPI (Thermo Fisher Scientific). Images were taken with a Cytation5 (BioTek) microscope. For scoring αSMA positive cells (FIG. 12), an observer blinded to the treatment conditions counted αSMA-positive cells using a visual threshold for bright fibrous staining; a minimum of 200 cells was counted for each condition. YAP/TAZ localization was quantified (FIGS. 6-10, 24-26, and 29-30) using Gen5 (Biotek) software. Images were taken at 4× magnification of both DAPI and YAP/TAZ staining. […] Quantification of double positive (YAP/TAZ and αSMA) cells from lung tissue sections (FIG. 17-21) was performed similarly; however separate thresholds were established for both YAP/TAZ and αSMA. A minimum of 4000 cells was quantified for each mouse.

CTGF, COL1A1, ACTA2, FN1 = test: Profibrotic / matrix remodeling gene expression by qPCR in fibroblasts; type: cell-based, human; details: IMR-90 lung fibroblasts; for profibrotic gene expression: 24 hours
Procedure: Genes which encode Connective tissue growth factor (CTGF), Collagen I (COL1A1), αSMA (ACTA2), and Fibronectin (FN1) are reduced by 24 hour treatment with DHX (10 μM), +/−SCH 39166 (3 μM). N=3 (****p<0.0001, ***p<0.001, *p<0.05 vs. 0.1% DMSO vehicle control)
IPF patient-derived fibroblasts cultured in media containing 0.1% FBS were stimulated for 24 hours with 2 ng/mL TGFβ and 10 μM DHX prior to RNA isolation. Genes which encode for ECM crosslinking: transglutaminase 2 (TGM2), lysyl oxidase and lysyl oxidase-like enzymes (LOX and LOXL1-4), ECM degradation: uPA (PLAU), tPa (PLAT), cathepsin K (CTSK), and matrix metalloprotease-14 (MMP14) and ECM protease inhibitors: metalloprotease inhibitor 3 (TIMP3), and plasminogen activator inhibitor 1 (SERPINE1) were measured. N=3. (****p<0.0001, ***p<0.001, **p<0.01, *p<0.05 vs. 0.1% DMSO vehicle control non-TGFβ treated), (++++p<0.0001, ++p<0.01, +p<0.05 vs. 0.10% DMSO vehicle control TGFβ treated).
For all other in vitro experiments, cells were treated as indicated prior to RNA isolation using RNeasy Plus Mini Kit (Qiagen) according to manufacturer's instructions. Isolated RNA (250 ng) was then used to synthesize cDNA using SuperScript VILO (Invitrogen). Quantitative PCR was performed using FastStart Essential DNA Green Master (Roche) and analyzed using a LightCycler 96 (Roche). Data are expressed as a fold change by ΔΔCt relative to GAPDH. For in vivo experiments, tissue was immediately frozen, and stored at −80° C. RNA isolation, cDNA synthesis, and qPCR analysis were performed as above.

αSMA = test: TGFβ-induced αSMA+ stress fiber formation in fibroblasts; type: cell-based, human; details: IPF-patient derived fibroblasts, TGFβ 48 hours, then dopamine 1 μM + TGFβ 24 hours
Procedure: as §1, with “Media” for “Immunofluorescence Microscopy: Cells were plated into 96 well plates (Corning 3603) in their specific growth media and allowed to attach (8 hours). Media”

[2] = system: IPF patient derived fibroblasts; test: Traction force microscopy of IPF patient-derived fibroblasts; type: cell-based, human; details: IPF fibroblasts on 6.4 kPa matrices
Procedure: Traction Force Microscopy: Traction analysis was conducted as previously described. […] IPF patient derived fibroblasts were plated on the gels overnight and treated as indicated before traction force measurements. Images of gel surface-conjugated fluorescent beads were acquired for each cell before and after trypsinization using a Nikon ECLIPSE Ti microscope at ×10 magnification. Traction forces were estimated by measuring bead displacement fields and computing corresponding traction fields using TractionsForAll (freely distributed program that calculates 2-D tractions exerted by an adherent cell on its substrate).

YAP/TAZ [3] = test: YAP/TAZ nuclear localization in IPF patient-derived lung fibroblasts treated with dopaminergic agonists; type: cell-based, human; details: for Nuclear localization (% of total cells): 10 μM, 2 hours
Procedure: IPF patient-derived lung fibroblasts cells treated 2 hours prior to fixation with diverse dopaminergic agonists (10 μM). N=4 different patient samples. % nuclear localization of YAP/TAZ was determined using automated imaging software. Scale bar represents 100 μm.
as §1, with “Media” for “Immunofluorescence Microscopy: Cells were plated into 96 well plates (Corning 3603) in their specific growth media and allowed to attach (8 hours). Media”, “Cells were fixed in 3.7% formalin (Sigma-Aldrich), permeabilized in 0.25% Triton X-100 (Sigma-Aldrich) and then blocked with 1% BSA for 1 h.” left out

cAMP = cAMP assay (cAMP-Glo) in fibroblasts; type: cell-based, human; details: IMR-90 lung fibroblasts
Procedure: FIG. 9 contains a bar graph showing cAMP measured in IPF patient-derived fibroblasts treated for 20 minutes with DHX (10 μM)+/−SCH 39166 (3 μM). N=3 (**p<0.01 vs. 0.1% DMSO vehicle control).
N=3, IMR-90 lung fibroblasts.
cAMPAssay: IPF patient derived fibroblasts were plated in EMEM containing 10% FBS overnight. […] 20 minutes prior to cell lysis media was removed and cells were treated with “induction buffer” containing nonselective phosphodiesterase inhibitors and the indicated concentration of compound(s). Luminescence was measured on a Flexstation 3 (Molecular Devices) plate reader.

YAP/TAZ [4] = test: YAP/TAZ nuclear localization in IMR-90 and other fibroblasts / mesenchymal cells (immunofluorescence); type: cell-based, human; details: IMR-90 lung fibroblasts
Procedure: Selective agonists of dopamine receptor D1 with varying efficacy inhibit YAP/TAZ nuclear localization; this effect can be overcome by treatment with a DRD1 receptor antagonist (SCH 39166, 3 μM), (Dihydrexidine, 10 μM). IMR-90 cells treated 2 hours prior to fixation. N=4 (****p<0.0001 vs. 0.10% DMSO vehicle control). Scale bar represents 100 μm.
In each case DHX treatment (10 μM) can reverse this effect on YAP/TAZ. IMR-90 cells plated densely onto plastic cell culture plates for 24 hours in media containing 0.1% FBS, treated for 2 hours prior to fixation. N=4 (****p<0.0001 vs. 0.1% DMSO vehicle control), (++++p<0.0001 vs. the respective stimulated agonist ET-1, LPA, or 5-HT). Scale bar represents 100 μm.
Mesenchymal cells derived from lung (IMR-90 and IPF-FBs) hepatic stellate cells (HSC), human adult cardiac fibroblasts, (HACF) and human dermal fibroblasts (HDF) were plated densely (Confluent) or sparsely (Control and all remaining conditions) onto plastic cell culture plates for 24 hours in media containing 0.10% FBS, treated for 2 hours with Rho kinase inhibitor Y27632, adenylate cyclase activator forskolin and DHX. N=4, Cells that were positive for nuclear YAP/TAZ were quantified by automated image analysis.
as §1

Structure (SMILES)	IC50 (YAP/TAZ [1]) [nM]	profibrotic gene expression (CTGF, COL1A1, ACTA2, FN1)	effect of D1 antagonist on DHX's inhibition of YAP/TAZ target genes (CTGF, COL1A1, ACTA2, FN1)	effect of D1 antagonist on DHX's elevation of cAMP (cAMP)	effect of D1 antagonist on DHX's inhibition of YAP/TAZ nuclear localization (YAP/TAZ [4])	further results
NCC1OC(C2CCCOC2)Cc2c1ccc(O)c2O (centres unmarked) [CTC-1]	285	inhibition of profibrotic gene expression				
CC(C)(CO)C1Cc2c(ccc(O)c2O)C(CN)O1 (centres unmarked) [CTC-2]	490	inhibition of profibrotic gene expression				
NCCc1ccc(O)c(O)c1 [Dopamine•HCl, Dopamine]						αSMA+ stress fiber formation (αSMA): reverses αSMA+ stress fiber formation; contractile forces (traction force microscopy) [2]: attenuates IPF fibroblast contractility; Nuclear localization (% of total cells) (YAP/TAZ [3]; IPF-1 patient fibroblasts): 39.85 % of total cells; Nuclear localization (% of total cells) (YAP/TAZ [3]; IPF-2 patient fibroblasts): 59.29 % of total cells; Nuclear localization (% of total cells) (YAP/TAZ [3]; IPF-3 patient fibroblasts): 49.67 % of total cells; Nuclear localization (% of total cells) (YAP/TAZ [3]; IPF-4 patient fibroblasts): 49.51 % of total cells; YAP/TAZ nuclear localization (YAP/TAZ [3]; low density IPF-patient derived fibroblasts on tissue culture plastic): inhibits YAP/TAZ nuclear localization
CN1CCc2ccccc2Cc2[nH]c3ccccc3c2CC1 [LE-300]			block DHX's inhibition of YAP/TAZ target genes	block DHX's elevation of cAMP	block DHX's inhibition of YAP/TAZ nuclear localization	
CN1CCc2cc(Cl)c(O)cc2[C@H]2c3ccccc3CC[C@@H]21 [SCH-39166]			block DHX's inhibition of YAP/TAZ target genes	block DHX's elevation of cAMP	block DHX's inhibition of YAP/TAZ nuclear localization	
